Tested on: LG0703-F948-PDC complex spheroid viability
Assay: Anticancer human tumor LG0703-F948-PDC patient-derived lung adenocarcinoma cell line growth inhibition [RAS]
Conditions: for IC50: curve of first compound; for viability, T/C: stronger effect = lower value; active means viability on the fitted dose curve at most 10% of control; inactive means the rest
Method in brief: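 Agents were tested in combination matrices in half-log decrements from a top concentration at or near clinical Cmax (10 microM if undetermined). Targets were multi-cell spheroids of tumour lines plus HUVEC and MSC stromal cells.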

[1] = second compound 0.000949 µM, first compound 0.0316 µM
[2] = second compound 0.000949 µM, first compound 0.1 µM
[3] = second compound 0.000949 µM, first compound 0.316 µM
[4] = second compound 0.000949 µM, first compound 1 µM
[5] = second compound 0.000949 µM, first compound 3.16 µM
[6] = second compound 0.000949 µM, first compound 10 µM
[7] = second compound 0.003 µM, first compound 0.0316 µM
[8] = second compound 0.003 µM, first compound 0.1 µM
[9] = second compound 0.003 µM, first compound 0.316 µM
[10] = second compound 0.003 µM, first compound 1 µM
[11] = second compound 0.003 µM, first compound 3.16 µM
[12] = second compound 0.003 µM, first compound 10 µM
[13] = second compound 0.00949 µM, first compound 0.0316 µM
[14] = second compound 0.00949 µM, first compound 0.1 µM
[15] = second compound 0.00949 µM, first compound 0.316 µM
[16] = second compound 0.00949 µM, first compound 1 µM
[17] = second compound 0.00949 µM, first compound 3.16 µM
[18] = second compound 0.00949 µM, first compound 10 µM
[19] = second compound 0.03 µM, first compound 0.0316 µM
[20] = second compound 0.03 µM, first compound 0.1 µM
[21] = second compound 0.03 µM, first compound 0.316 µM
[22] = second compound 0.03 µM, first compound 1 µM
[23] = second compound 0.03 µM, first compound 3.16 µM
[24] = second compound 0.03 µM, first compound 10 µM
[25] = second compound 0.0949 µM, first compound 0.0316 µM
[26] = second compound 0.0949 µM, first compound 0.1 µM
[27] = second compound 0.0949 µM, first compound 0.316 µM
[28] = second compound 0.0949 µM, first compound 1 µM
[29] = second compound 0.0949 µM, first compound 3.16 µM
[30] = second compound 0.0949 µM, first compound 10 µM
[31] = second compound 0.3 µM, first compound 0.0316 µM
[32] = second compound 0.3 µM, first compound 0.1 µM
[33] = second compound 0.3 µM, first compound 0.316 µM
[34] = second compound 0.3 µM, first compound 1 µM
[35] = second compound 0.3 µM, first compound 3.16 µM
[36] = second compound 0.3 µM, first compound 10 µM
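Further: spheroids exposed to agents for 7 days.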
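Wherever viability, T/C is given: 100% = DMSO vehicle wells.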

CC1(O)CCCC1n1c(=O)c(C(F)F)cc2cnc(NC3CCN(S(C)(=O)=O)CC3)nc21 (stereo not given) + CCn1c(-c2cccnc2C(C)OC)c2c3cc(ccc31)N1CCOC(CC(NC(=O)C(C(C)C)N(C)C(=O)C3(F)CCN(C(=O)C#CC(C)(C)N(C)C)CC3)C(=O)N3CCCC(N3)C(=O)OCC(C)(C)C2)C1
6.58 µM: IC50 (second compound 0.0949 µM)
> 10 µM: IC50 (second compound 0.000949 µM) | IC50 (second compound 0.03 µM)
9.07 µM: IC50 (second compound 0.003 µM)
9.59 µM: IC50 (second compound 0.00949 µM)
inactive: viability, T/C [1] 112% | viability, T/C [2] 89.6% | viability, T/C [3] 97.3% | viability, T/C [4] 84.6% | viability, T/C [5] 85.4% | viability, T/C [6] 50% | viability, T/C [7] 114% | viability, T/C [8] 90.7% | viability, T/C [9] 108% | viability, T/C [10] 93.5% | viability, T/C [11] 82.2% | viability, T/C [12] 46.5% | viability, T/C [13] 88.9% | viability, T/C [14] 114% | viability, T/C [15] 94.1% | viability, T/C [16] 86.4% | viability, T/C [17] 87.5% | viability, T/C [18] 47.9% | viability, T/C [19] 112% | viability, T/C [20] 90.4% | viability, T/C [21] 90% | viability, T/C [22] 84.4% | viability, T/C [23] 87.8% | viability, T/C [24] 51.4% | viability, T/C [25] 90.5% | viability, T/C [26] 99.6% | viability, T/C [27] 85.8% | viability, T/C [28] 75.5% | viability, T/C [29] 78.6% | viability, T/C [30] 36% | viability, T/C [31] 54.8% | viability, T/C [32] 56.4% | viability, T/C [33] 58.2% | viability, T/C [34] 57.4% | viability, T/C [35] 62.3% | viability, T/C [36] 23.9%
4.12 µM: IC50 (second compound 0.3 µM)

CCC(CC)c1cc(NC2CCC(N)C2)n2nccc2n1 (stereo not given) + CCn1c(-c2cccnc2C(C)OC)c2c3cc(ccc31)N1CCOC(CC(NC(=O)C(C(C)C)N(C)C(=O)C3(F)CCN(C(=O)C#CC(C)(C)N(C)C)CC3)C(=O)N3CCCC(N3)C(=O)OCC(C)(C)C2)C1
< 0.0316 µM: IC50 (second compound 0.3 µM)
1.04 µM: IC50 (second compound 0.003 µM)
active: viability, T/C [6] 0.33% | viability, T/C [12] 0.26% | viability, T/C [17] 4.34% | viability, T/C [18] 0.8% | viability, T/C [24] 0.32% | viability, T/C [30] 0.29% | viability, T/C [35] 3.57% | viability, T/C [36] 0.69%
0.964 µM: IC50 (second compound 0.000949 µM)
0.36 µM: IC50 (second compound 0.0949 µM)
1.6 µM: IC50 (second compound 0.00949 µM)
1.09 µM: IC50 (second compound 0.03 µM)
inactive: viability, T/C [1] 104% | viability, T/C [2] 89.9% | viability, T/C [3] 79.8% | viability, T/C [4] 54% | viability, T/C [5] 5.17% | viability, T/C [7] 104% | viability, T/C [8] 96.8% | viability, T/C [9] 79.4% | viability, T/C [10] 58.2% | viability, T/C [11] 4.18% | viability, T/C [13] 87.5% | viability, T/C [14] 79.6% | viability, T/C [15] 80.6% | viability, T/C [16] 81.6% | viability, T/C [19] 100% | viability, T/C [20] 91.1% | viability, T/C [21] 77.5% | viability, T/C [22] 58.6% | viability, T/C [23] 4.55% | viability, T/C [25] 85.2% | viability, T/C [26] 65.5% | viability, T/C [27] 53.1% | viability, T/C [28] 37.2% | viability, T/C [29] 3.64% | viability, T/C [31] 41.6% | viability, T/C [32] 41.2% | viability, T/C [33] 27.3% | viability, T/C [34] 22.4%

CCN1CCN(Cc2ccc(Nc3ncc(F)c(-c4cc(F)c5nc(C)n(C(C)C)c5c4)n3)nc2)CC1 + CCn1c(-c2cccnc2C(C)OC)c2c3cc(ccc31)N1CCOC(CC(NC(=O)C(C(C)C)N(C)C(=O)C3(F)CCN(C(=O)C#CC(C)(C)N(C)C)CC3)C(=O)N3CCCC(N3)C(=O)OCC(C)(C)C2)C1
> 1 µM: IC50 (second compound 0.000949 µM) | IC50 (second compound 0.003 µM) | IC50 (second compound 0.00949 µM) | IC50 (second compound 0.03 µM) | IC50 (second compound 0.0949 µM)
< 0.00316 µM: IC50 (second compound 0.3 µM)
inactive: viability, T/C (second compound 0.000949 µM, first compound 0.00316 µM) 103% | viability, T/C (second compound 0.000949 µM, first compound 0.01 µM) 111% | viability, T/C [1] 91.9% | viability, T/C [2] 81.8% | viability, T/C [3] 79.4% | viability, T/C [4] 80.5% | viability, T/C (second compound 0.003 µM, first compound 0.00316 µM) 101% | viability, T/C (second compound 0.003 µM, first compound 0.01 µM) 97.3% | viability, T/C [7] 81.1% | viability, T/C [8] 104% | viability, T/C [9] 111% | viability, T/C [10] 76.8% | viability, T/C (second compound 0.00949 µM, first compound 0.00316 µM) 101% | viability, T/C (second compound 0.00949 µM, first compound 0.01 µM) 97.2% | viability, T/C [13] 93% | viability, T/C [14] 108% | viability, T/C [15] 82.4% | viability, T/C [16] 94.8% | viability, T/C (second compound 0.03 µM, first compound 0.00316 µM) 96.9% | viability, T/C (second compound 0.03 µM, first compound 0.01 µM) 98% | viability, T/C [19] 95.5% | viability, T/C [20] 75.4% | viability, T/C [21] 81.2% | viability, T/C [22] 79% | viability, T/C (second compound 0.0949 µM, first compound 0.00316 µM) 90.7% | viability, T/C (second compound 0.0949 µM, first compound 0.01 µM) 86.8% | viability, T/C [25] 86.3% | viability, T/C [26] 90.1% | viability, T/C [27] 84.8% | viability, T/C [28] 74.8% | viability, T/C (second compound 0.3 µM, first compound 0.00316 µM) 54.6% | viability, T/C (second compound 0.3 µM, first compound 0.01 µM) 40% | viability, T/C [31] 56.4% | viability, T/C [32] 54.7% | viability, T/C [33] 59.8% | viability, T/C [34] 54.5%

C[C@@H](NC(=O)c1ncnc(N)c1Cl)c1ncc(C(=O)Nc2cc(C(F)(F)F)c(Cl)cn2)s1 + CCn1c(-c2cccnc2C(C)OC)c2c3cc(ccc31)N1CCOC(CC(NC(=O)C(C(C)C)N(C)C(=O)C3(F)CCN(C(=O)C#CC(C)(C)N(C)C)CC3)C(=O)N3CCCC(N3)C(=O)OCC(C)(C)C2)C1
> 10 µM: IC50 (second compound 0.000949 µM) | IC50 (second compound 0.003 µM) | IC50 (second compound 0.00949 µM) | IC50 (second compound 0.03 µM) | IC50 (second compound 0.0949 µM)
< 0.0316 µM: IC50 (second compound 0.3 µM)
inactive: viability, T/C [1] 87.6% | viability, T/C [2] 106% | viability, T/C [3] 118% | viability, T/C [4] 110% | viability, T/C [5] 102% | viability, T/C [6] 90.1% | viability, T/C [7] 106% | viability, T/C [8] 102% | viability, T/C [9] 85.5% | viability, T/C [10] 113% | viability, T/C [11] 103% | viability, T/C [12] 105% | viability, T/C [13] 94.1% | viability, T/C [14] 108% | viability, T/C [15] 91% | viability, T/C [16] 103% | viability, T/C [17] 92.3% | viability, T/C [18] 87.7% | viability, T/C [19] 99.6% | viability, T/C [20] 105% | viability, T/C [21] 88.4% | viability, T/C [22] 97% | viability, T/C [23] 107% | viability, T/C [24] 82.2% | viability, T/C [25] 74.4% | viability, T/C [26] 71.1% | viability, T/C [27] 81.7% | viability, T/C [28] 78.3% | viability, T/C [29] 88.4% | viability, T/C [30] 65.9% | viability, T/C [31] 43.5% | viability, T/C [32] 42.9% | viability, T/C [33] 48.6% | viability, T/C [34] 54% | viability, T/C [35] 48.1% | viability, T/C [36] 37.5%

Cc1nc(N2CCC3(CC2)COC(C)C3N)c(CO)nc1Sc1ccnc(N)c1Cl (stereo not given) + CCn1c(-c2cccnc2C(C)OC)c2c3cc(ccc31)N1CCOC(CC(NC(=O)C(C(C)C)N(C)C(=O)C3(F)CCN(C(=O)C#CC(C)(C)N(C)C)CC3)C(=O)N3CCCC(N3)C(=O)OCC(C)(C)C2)C1
0.402 µM: IC50 (second compound 0.00949 µM)
0.337 µM: IC50 (second compound 0.003 µM)
active: viability, T/C [30] 5.55% | viability, T/C [35] 6.25% | viability, T/C [36] 3.6%
0.14 µM: IC50 (second compound 0.0949 µM)
< 0.0316 µM: IC50 (second compound 0.3 µM)
inactive: viability, T/C [1] 100% | viability, T/C [2] 68.4% | viability, T/C [3] 61.6% | viability, T/C [4] 43.1% | viability, T/C [5] 24.8% | viability, T/C [6] 13% | viability, T/C [7] 87.8% | viability, T/C [8] 76% | viability, T/C [9] 47.8% | viability, T/C [10] 31.7% | viability, T/C [11] 24.4% | viability, T/C [12] 11.9% | viability, T/C [13] 93.1% | viability, T/C [14] 74.8% | viability, T/C [15] 52.7% | viability, T/C [16] 36.9% | viability, T/C [17] 21.5% | viability, T/C [18] 13.6% | viability, T/C [19] 70.2% | viability, T/C [20] 58.6% | viability, T/C [21] 52.1% | viability, T/C [22] 42.4% | viability, T/C [23] 16.9% | viability, T/C [24] 12.7% | viability, T/C [25] 73.2% | viability, T/C [26] 56.8% | viability, T/C [27] 35.2% | viability, T/C [28] 23.2% | viability, T/C [29] 13.5% | viability, T/C [31] 34.1% | viability, T/C [32] 26.7% | viability, T/C [33] 22.8% | viability, T/C [34] 14.3%
0.548 µM: IC50 (second compound 0.000949 µM)
0.39 µM: IC50 (second compound 0.03 µM)
